In the supplement of paper PMC10627819:

Legend:
Experiment in all cases: Bliss interaction score (quartile over a dose matrix) (fitness difference); higher = more antagonism (negative = synergy)
S. aureus Newman = system: S. aureus Newman
How it was run: (§1)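 Combination data were used to infer fitness under each single drug. Fitness is the OD595 at entry into stationary phase divided by the robust mean of the plate's no-drug wells, with a cap of 1. The Bliss score is the observed minus the expected product fitness, summarised by quartiles over technical, biological and donor/recipient replicates.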

S. aureus DSM 20231 = system: S. aureus DSM 20231
How it was run: as §1

B. subtilis 168 = system: B. subtilis 168
How it was run: as §1

S. pneumoniae D39V = system: S. pneumoniae D39V
How it was run: as §1
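Further: first quartile when negative (synergy) and third quartile when positive (antagonism).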

Compound	Bliss interaction score (S. aureus Newman)	Bliss interaction score (S. aureus DSM 20231)	Bliss interaction score (B. subtilis 168)	Bliss interaction score (S. pneumoniae D39V)	Bliss interaction score (S. aureus Newman; main component drawn)	Bliss interaction score (S. aureus DSM 20231; main component drawn)	Bliss interaction score (B. subtilis 168; main component drawn)	Bliss interaction score (S. pneumoniae D39V; main component drawn)
CC(=O)OC[C@H]1O[C@@H]([S-])[C@H](OC(C)=O)[C@@H](OC(C)=O)[C@@H]1OC(C)=O.CCP(CC)CC.[Au+] [Auranofin] + CC[C@H]1OC(=O)[C@H](C)[C@@H](O[C@H]2C[C@@](C)(OC)[C@@H](O)[C@H](C)O2)[C@H](C)[C@@H](O[C@@H]2O[C@H](C)C[C@H](N(C)C)[C@H]2O)[C@](C)(O)C[C@@H](C)CN(C)[C@H](C)[C@@H](O)[C@]1(C)O [Azithromycin]	0.137	0.0282	0.0589	-0.038				
CC(=O)OC[C@H]1O[C@@H]([S-])[C@H](OC(C)=O)[C@@H](OC(C)=O)[C@@H]1OC(C)=O.CCP(CC)CC.[Au+] [Auranofin] + CC[C@H]1OC(=O)[C@H](C)[C@@H](O[C@H]2C[C@@](C)(OC)[C@@H](O)[C@H](C)O2)[C@H](C)[C@@H](O[C@@H]2O[C@H](C)C[C@H](N(C)C)[C@H]2O)[C@](C)(OC)C[C@@H](C)C(=O)[C@H](C)[C@@H](O)[C@]1(C)O [Clarithromycin]	0.0636	0.0219	0.0346	0.039				
CC(=O)OC[C@H]1O[C@@H]([S-])[C@H](OC(C)=O)[C@@H](OC(C)=O)[C@@H]1OC(C)=O.CCP(CC)CC.[Au+] [Auranofin] + CC[C@H](C)[C@H](N)C1=N[C@H](C(=O)N[C@@H](CC(C)C)C(=O)N[C@H](CCC(=O)O)C(=O)N[C@H](C(=O)N[C@H]2CCCCNC(=O)[C@H](CC(N)=O)NC(=O)[C@@H](CC(=O)O)NC(=O)[C@H](Cc3cnc[nH]3)NC(=O)[C@@H](Cc3ccccc3)NC(=O)[C@H]([C@@H](C)CC)NC(=O)[C@@H](CCCN)NC2=O)[C@@H](C)CC)CS1 [Bacitracin]					0.133	0.0174	0.165	-0.0398
CC(=O)OC[C@H]1O[C@@H]([S-])[C@H](OC(C)=O)[C@@H](OC(C)=O)[C@@H]1OC(C)=O.CCP(CC)CC.[Au+] [Auranofin] + CN1C2=CC=CC=C2N=C3C1=CC=CC3=O [Pyocyanin]	-0.158	0.0747	-0.0273	0.0818				
CC(=O)OC[C@H]1O[C@@H]([S-])[C@H](OC(C)=O)[C@@H](OC(C)=O)[C@@H]1OC(C)=O.CCP(CC)CC.[Au+] [Auranofin] + CN(C)C(=O)C(CCN1CCC(O)(c2ccc(Cl)cc2)CC1)(c1ccccc1)c1ccccc1 [Loperamide]	0.113	0.0252	0.0417	0.116				
CC(=O)OC[C@H]1O[C@@H]([S-])[C@H](OC(C)=O)[C@@H](OC(C)=O)[C@@H]1OC(C)=O.CCP(CC)CC.[Au+] [Auranofin] + CN(C)[C@@H]1C(O)=C(C(N)=O)C(=O)[C@@]2(O)C(O)=C3C(=O)c4c(O)ccc(Cl)c4[C@@](C)(O)[C@H]3C[C@@H]12 [Clortetracycline]	0.0623	0.0317	0.0659	0.0541				
CC(=O)OC[C@H]1O[C@@H]([S-])[C@H](OC(C)=O)[C@@H](OC(C)=O)[C@@H]1OC(C)=O.CCP(CC)CC.[Au+] [Auranofin] + CN(C)c1cc(NC(=O)CNC(C)(C)C)c(O)c2c1C[C@H]1C[C@H]3[C@H](N(C)C)C(O)=C(C(N)=O)C(=O)[C@@]3(O)C(O)=C1C2=O [Tigecycline]	-0.066	-0.0332	0.0508	0.0966				
CC(=O)OC[C@H]1O[C@@H]([S-])[C@H](OC(C)=O)[C@@H](OC(C)=O)[C@@H]1OC(C)=O.CCP(CC)CC.[Au+] [Auranofin] + CN(N=O)C(=O)N[C@@H](C=O)[C@@H](O)[C@H](O)[C@H](O)CO [Streptozotocin]	0.0723	-0.0317	0.0355	0.105				
CC(=O)OC[C@H]1O[C@@H]([S-])[C@H](OC(C)=O)[C@@H](OC(C)=O)[C@@H]1OC(C)=O.CCP(CC)CC.[Au+] [Auranofin] + CN[C@@H]1[C@H](O)[C@H](NC)[C@H]2O[C@@]3(O)C(=O)C[C@@H](C)O[C@H]3O[C@@H]2[C@H]1O [Spectinomycin]	0.0532	0.0611	0.0604	-0.162				
CC(=O)OC[C@H]1O[C@@H]([S-])[C@H](OC(C)=O)[C@@H](OC(C)=O)[C@@H]1OC(C)=O.CCP(CC)CC.[Au+] [Auranofin] + CN[C@@H]1[C@H](O[C@H]2[C@H](O[C@H]3[C@H](O)[C@@H](O)[C@H](N=C(N)N)[C@@H](O)[C@@H]3N=C(N)N)O[C@@H](C)[C@]2(O)C=O)O[C@@H](CO)[C@H](O)[C@H]1O [Streptomycin]	-0.0862	-0.0362	0.0215	-0.163				
CC(=O)OC[C@H]1O[C@@H]([S-])[C@H](OC(C)=O)[C@@H](OC(C)=O)[C@@H]1OC(C)=O.CCP(CC)CC.[Au+] [Auranofin] + CN[C@H](CC(C)C)C(=O)N[C@H]1C(=O)N[C@@H](CC(N)=O)C(=O)N[C@H]2C(=O)N[C@H]3C(=O)N[C@H](C(=O)N[C@H](C(=O)O)c4cc(O)cc(O)c4-c4cc3ccc4O)[C@H](O)c3ccc(c(Cl)c3)Oc3cc2cc(c3O[C@@H]2O[C@H](CO)[C@@H](O)[C@H](O)[C@H]2O[C@H]2C[C@](C)(N)[C@H](O)[C@H](C)O2)Oc2ccc(cc2Cl)[C@H]1O [Vancomycin]	0.0325	-0.0311	0.0381	0.0929				
CC(=O)OC[C@H]1O[C@@H]([S-])[C@H](OC(C)=O)[C@@H](OC(C)=O)[C@@H]1OC(C)=O.CCP(CC)CC.[Au+] [Auranofin] + CN[C@H](CC(C)C)C(=O)N[C@H]1C(=O)N[C@@H](CC(N)=O)C(=O)N[C@H]2C(=O)N[C@H]3C(=O)N[C@H](C(=O)N[C@H](C(=O)O)c4cc(O)cc(O)c4-c4cc3ccc4O)[C@H](O[C@H]3C[C@](C)(N)[C@@H](O)[C@H](C)O3)c3ccc(c(Cl)c3)Oc3cc2cc(c3O[C@@H]2O[C@H](CO)[C@@H](O)[C@H](O)[C@H]2O[C@H]2C[C@](C)(NCc3ccc(-c4ccc(Cl)cc4)cc3)[C@@H](O)[C@H](C)O2)Oc2ccc(cc2Cl)[C@H]1O [Oritavancin]	0.0771	0.0219	0.0311	0.0463				
CC(=O)OC[C@H]1O[C@@H]([S-])[C@H](OC(C)=O)[C@@H](OC(C)=O)[C@@H]1OC(C)=O.CCP(CC)CC.[Au+] [Auranofin] + CO/N=C(\C(=O)N[C@@H]1C(=O)N2C(C(=O)O)=C(COC(C)=O)CS[C@H]12)c1csc(N)n1 [Cefotaxime]	0.0713	0.0539	-0.0473	0.0687				
CC(=O)OC[C@H]1O[C@@H]([S-])[C@H](OC(C)=O)[C@@H](OC(C)=O)[C@@H]1OC(C)=O.CCP(CC)CC.[Au+] [Auranofin] + CO/N=C(\C(=O)N[C@@H]1C(=O)N2C(C(=O)O)=C(COC(N)=O)CS[C@H]12)c1ccco1 [Cefuroxime]	0.0517	-0.239	-0.0911	0.0434				
CC(=O)OC[C@H]1O[C@@H]([S-])[C@H](OC(C)=O)[C@@H](OC(C)=O)[C@@H]1OC(C)=O.CCP(CC)CC.[Au+] [Auranofin] + CO/N=C(\C(=O)N[C@@H]1C(=O)N2C(C(=O)[O-])=C(C[N+]3(C)CCCC3)CS[C@H]12)c1csc(N)n1 [Cefepime]	0.0786	0.0512	0.046	0.114				
CC(=O)OC[C@H]1O[C@@H]([S-])[C@H](OC(C)=O)[C@@H](OC(C)=O)[C@@H]1OC(C)=O.CCP(CC)CC.[Au+] [Auranofin] + CO[C@@H]1[C@@H](OC(N)=O)[C@@H](O)[C@H](Oc2ccc3c(O)c(NC(=O)c4ccc(O)c(CC=C(C)C)c4)c(=O)oc3c2C)OC1(C)C [Novobiocin]	0.105	-0.0224	-0.0665	0.0612				
CC(=O)OC[C@H]1O[C@@H]([S-])[C@H](OC(C)=O)[C@@H](OC(C)=O)[C@@H]1OC(C)=O.CCP(CC)CC.[Au+] [Auranofin] + CO[C@@]12[C@H](COC(N)=O)C3=C(C(=O)C(C)=C(N)C3=O)N1C[C@@H]1N[C@@H]12 [MitomycinC]	0.0961	-0.0435	0.0315	-0.126				
CC(=O)OC[C@H]1O[C@@H]([S-])[C@H](OC(C)=O)[C@@H](OC(C)=O)[C@@H]1OC(C)=O.CCP(CC)CC.[Au+] [Auranofin] + CO[C@H]1/C=C/O[C@@]2(C)Oc3c(C)c(O)c4c(O)c(c(/C=N/N5CCN(C)CC5)c(O)c4c3C2=O)NC(=O)/C(C)=C\C=C\[C@H](C)[C@H](O)[C@@H](C)[C@@H](O)[C@@H](C)[C@H](OC(C)=O)[C@@H]1C [Rifampicin]	0.0123	0.0331	0.081	0.0685				
CC(=O)OC[C@H]1O[C@@H]([S-])[C@H](OC(C)=O)[C@@H](OC(C)=O)[C@@H]1OC(C)=O.CCP(CC)CC.[Au+] [Auranofin] + COc1c(N2C[C@@H]3CCCN[C@@H]3C2)c(F)cc2c(=O)c(C(=O)O)cn(C3CC3)c12 [Moxifloxacin]	0.105	0.0832	0.031	-0.051				
